Test results published in US7713994B2 (Wyeth LLC, priority 2005, dated 2010).
Like-named read-outs stand apart in the source and are kept apart here.

Key:
cyclin E/CDK2 enzyme = target: T1, cyclin E/CDK2 enzyme (Homo sapiens, UniProt P24941); assay: CDK2 ELISA kinase assay (phospho-Rb ser 795 detection); assay type: biochemical
T1 construct: made in house; host or cells: Sf9 insect cells, recombinant baculovirus
Summary of the method: (§1)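 GST-Rb C-terminal fragment coated on wells; kinase reaction: 200 μM ATP, 0.5 mg/ml BSA, HEPES pH 7.5, 10 mM MgCl2, baculovirus/Sf9 cyclin-CDK, 30° C, 1 h. Readout anti-phospho-Rb Ser795, HRP, TMB, A450. Test compound 10 ug/ml final.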

HCT-116 = assay: Cytotoxicity assay (SRB), HCT-116; assay type: cell-based; conditions: read-out: In Vitro Cellular Activity IC50 HCT116
Summary of the method: (§2)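 Growth inhibition, SRB method: 3-day continuous compound exposure for HCT-116, LoVo and MCF-7 and 6-day exposure for BT474. Absorbance at 540 nm reflects surviving cell protein relative to controls.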

BT474 = assay: Cytotoxicity assay (SRB), BT474; assay type: cell-based; conditions: read-out: In Vitro Cellular Activity IC50 BT474
Summary of the method: as §2

LoVo = assay: Cytotoxicity assay (SRB), LoVo; assay type: cell-based; conditions: read-out: In Vitro Cellular Activity IC50 LOVO
Summary of the method: as §2

cyclin B/CDK1 enzyme = target: T2, cyclin B/CDK1 enzyme (Homo sapiens, UniProt P06493); assay: CDK1 ELISA kinase assay (phospho-Rb ser 795 detection); assay type: biochemical
T2 construct: purchased New England BioLabs; host or cells: Sf9 insect cells, recombinant baculovirus
Summary of the method: as §1

cyclin D1/cdk 4 enzyme = target: T3, cyclin D1/cdk 4 enzyme (Homo sapiens, UniProt P11802); assay: CDK4 ELISA kinase assay (phospho-Rb ser 795 detection); assay type: biochemical
T3 construct: made in house; host or cells: Sf9 insect cells, recombinant baculovirus
Summary of the method: as §1

MCF-7 = assay: Cytotoxicity assay (SRB), MCF-7; assay type: cell-based; conditions: read-out: In Vitro Cellular Activity IC50 MCF-7
Summary of the method: as §2

[1] = In Vitro Enzyme Assays, read-out: CDK2 IC50
[2] = Homo sapiens, HCT-116, 72 h, HCT116 cells, SRB, three days
[3] = Homo sapiens, BT-474, 144 h, BT474 cells, SRB, 6 days
[4] = Homo sapiens, LoVo, 72 h, LoVo cells, SRB, three days
[5] = In Vitro Enzyme Assays, read-out: CDK1 IC50
[6] = In Vitro Enzyme Assays, 200 μM ATP, read-out: CDK4 IC50
[7] = Homo sapiens, MCF7, 72 h, MCF-7 cells, SRB, three days
[8] = Homo sapiens, HCT-116, 72 h, HCT116 cells, 3 days, SRB
[9] = Homo sapiens, BT-474, 144 h, BT474 cells, 6 days, SRB
[10] = Homo sapiens, LoVo, 72 h, LoVo cells, 3 days, SRB
[11] = Homo sapiens, MCF7, 72 h, MCF-7 cells, 3 days, SRB
[12] = In Vitro Enzyme Assay, cyclin E/CDK2, read-out: CDK2 IC50
[13] = In Vitro Enzyme Assay, cyclin B/CDK1, read-out: CDK1 IC50
[14] = In Vitro Enzyme Assay, cyclin D1/cdk 4, read-out: CDK4 IC50

T3 sequence (P11802 whole entry, species assumed): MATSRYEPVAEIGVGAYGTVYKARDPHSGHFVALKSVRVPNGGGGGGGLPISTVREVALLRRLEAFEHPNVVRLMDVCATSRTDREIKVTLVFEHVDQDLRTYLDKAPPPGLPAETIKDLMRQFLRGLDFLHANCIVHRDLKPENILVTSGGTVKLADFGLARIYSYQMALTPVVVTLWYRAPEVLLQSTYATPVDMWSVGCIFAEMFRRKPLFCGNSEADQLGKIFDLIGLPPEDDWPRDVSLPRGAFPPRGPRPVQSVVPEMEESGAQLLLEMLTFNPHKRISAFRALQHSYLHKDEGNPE
T3 sequence (P24385 whole entry partner, species assumed): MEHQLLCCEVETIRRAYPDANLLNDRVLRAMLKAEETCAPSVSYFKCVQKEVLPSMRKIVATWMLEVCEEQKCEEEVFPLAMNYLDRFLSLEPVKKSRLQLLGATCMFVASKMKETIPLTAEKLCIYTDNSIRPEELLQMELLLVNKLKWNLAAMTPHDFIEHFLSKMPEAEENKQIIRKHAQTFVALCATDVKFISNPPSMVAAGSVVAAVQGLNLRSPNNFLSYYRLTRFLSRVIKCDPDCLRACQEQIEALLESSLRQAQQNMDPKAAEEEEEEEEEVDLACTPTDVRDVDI
T2 sequence (P06493 whole entry): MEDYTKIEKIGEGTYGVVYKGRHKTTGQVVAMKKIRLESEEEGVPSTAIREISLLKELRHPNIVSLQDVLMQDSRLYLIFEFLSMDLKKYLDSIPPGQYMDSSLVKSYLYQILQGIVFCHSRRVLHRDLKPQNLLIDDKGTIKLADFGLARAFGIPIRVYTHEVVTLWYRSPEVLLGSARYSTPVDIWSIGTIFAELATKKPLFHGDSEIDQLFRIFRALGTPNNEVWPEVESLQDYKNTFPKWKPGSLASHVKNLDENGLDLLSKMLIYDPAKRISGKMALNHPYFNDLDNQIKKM
T2 sequence (P14635 whole entry partner): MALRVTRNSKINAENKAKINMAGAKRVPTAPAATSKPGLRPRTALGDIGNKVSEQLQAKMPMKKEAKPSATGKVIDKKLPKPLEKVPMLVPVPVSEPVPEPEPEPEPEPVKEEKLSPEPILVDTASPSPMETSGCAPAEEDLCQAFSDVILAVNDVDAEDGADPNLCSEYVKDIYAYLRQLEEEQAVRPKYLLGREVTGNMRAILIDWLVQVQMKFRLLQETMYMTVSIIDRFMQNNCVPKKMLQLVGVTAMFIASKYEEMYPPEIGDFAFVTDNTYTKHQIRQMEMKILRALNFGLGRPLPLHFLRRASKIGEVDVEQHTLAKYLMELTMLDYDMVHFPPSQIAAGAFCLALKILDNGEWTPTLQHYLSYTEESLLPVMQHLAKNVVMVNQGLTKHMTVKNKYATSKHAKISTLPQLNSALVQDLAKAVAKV

| IC50 (cyclin E/CDK2 enzyme; [1]) [µM] | IC50 (cyclin B/CDK1 enzyme; [5]) [µM] | IC50 (cyclin D1/cdk 4 enzyme; [6]) [nM] | IC50 (cyclin E/CDK2 enzyme; [12]) [µM] | IC50 (cyclin B/CDK1 enzyme; [13]) [µM] | IC50 (cyclin D1/cdk 4 enzyme; [14]) [nM] | Molecule | IC50 (HCT-116; [2]) [µM] | IC50 (BT474; [3]) [µM] | IC50 (LoVo; [4]) [µM] | IC50 (MCF-7; [7]) [µM] | IC50 (HCT-116; [8]) [µM] | IC50 (BT474; [9]) [µM] | IC50 (LoVo; [10]) [µM] | IC50 (MCF-7; [11]) [µM] | further results |
| --- | --- | --- | --- | --- | --- | --- | --- | --- | --- | --- | --- | --- | --- | --- | --- |
| > 50 | > 50 | 260 |  |  |  | CCC1CCCN1Cc1ccc(N/C=C2\C(=O)NC(=O)c3ccc(I)cc32)cc1 (centres unmarked) [Example 436, 4-{[4-(2-Ethyl-pyrrolidin-1-ylmethyl)-phenylamino]-methylene}-6-iodo-4H-isoquinoline-1,3-dione] |  |  |  |  | 2.5 | 0.4 | 2.3 | 1.5 |  |
| > 50 | > 50 | 40 |  |  |  | O=C1NC(=O)c2ccc(-c3cccs3)cc2/C1=C/Nc1ccc(CN2CCC[C@H]2CO)cc1 (stereo in doubt) [Example 438, 4-{[4-(2-Hydroxymethyl-pyrrolidin-1-ylmethyl)-phenylamino]-methylene}-6-thiophen-2-yl-4H-isoquinoline-1,3-dione] |  |  |  |  | 1.6 | 2.2 | 1.6 | 1.8 |  |
|  |  |  | > 50 | > 50 | 2000 | O=C1NC(=O)c2ccc(-c3cc4ccccc4s3)cc2C1=CNCc1ccc(O)c(O)c1 [Example 644, 6-Benzo[b]thiophen-2-yl-4-[(3,4-dihydroxy-benzylamino)-methylene]-4H-isoquinoline-1,3-dione] |  |  |  |  | 14.1 | 17.9 | 19.1 | 6.3 |  |
|  |  |  | > 50 | 44.4 | > 50000 | CN1CCN(c2ccc(NC=C3C(=O)NCc4cc(-c5cccs5)ccc43)cc2)CC1 [Example 848, 4-{[4-(4-Methyl-piperazin-1-yl)-phenylamino]-methylene}-7-thiophen-2-yl-1,4-dihydro-2H-isoquinolin-3-one] |  |  |  |  | 7.1 | 13.8 | 13.3 | 10.9 |  |
|  |  |  | > 50 | > 50 | 700 | CN1CCN(c2ncc(N/C=C3\C(=O)NC(=O)c4ccc(I)cc43)cn2)CC1 [Example 475, (4Z)-6-Iodo-4-({[2-(4-methylpiperazin-1-yl)pyrimidin-5-yl]amino}methylene)isoquinoline-1,3(2H,4H)-dione] |  |  |  |  | 3.2 | 8.1 | 7.7 | 2.2 |  |
|  |  |  | 32.4 | 32.4 | 450 | NS(=O)(=O)c1ccc(CNC=C2C(=O)NC(=O)c3ccc(-c4ccc(F)cc4)cc32)cc1 [Example 738, 4-({[6-(4-Fluoro-phenyl)-1,3-dioxo-2,3-dihydro-1H-isoquinolin-4-ylidenemethyl]-amino}-methyl)-benzenesulfonamide] |  |  |  |  | 18.8 | 47.1 | 39.1 | 15.8 |  |
|  |  |  | 1.3 | 1 | 70 | CN1CCN(c2ccc(NC=C3C(=O)NC(=O)c4ccc(C=Cc5ccc(S(N)(=O)=O)cc5)cc43)cc2)CC1 [Example 728, 4-[2-(4-{[4-(4-Methyl-piperazin-1-yl)-phenylamino]-methylene}-1,3-dioxo-1,2,3,4-tetrahydro-isoquinolin-6-yl)-vinyl]-benzenesulfonamide] |  |  |  |  | 29.1 | > 50 | > 50 | > 50 |  |
|  |  |  | 5.6 | 27.7 | 120 | O=C1NC(=O)c2ccc(-c3ccc(Cl)cc3)cc2C1=CNCc1ccc(O)c(O)c1 [Example 778, 6-(4-Chloro-phenyl)-4-[(3,4-dihydroxy-benzylamino)-methylene]-4H-isoquinoline-1,3-dione] |  |  |  |  | 11.9 | 27.3 | 9.6 | 10.3 |  |
| 0.7 | 6.4 | 130 |  |  |  | C=CC(=O)Nc1cnc(CN/C=C2\C(=O)NC(=O)c3ccc(I)cc32)cc1O [Example 428, N-(4-Hydroxy-6-{[(6-iodo-1,3-dioxo-2,3-dihydro-1H-isoquinolin-4-ylidenemethyl)-amino]-methyl}-pyridin-3-yl)-acrylamide] |  |  |  |  | 0.77 | 0.07 | 0.65 | 1.67 |  |

The next lines start with the molecule.

| Molecule | IC50 (cyclin E/CDK2 enzyme; [1]) [µM] | IC50 (cyclin B/CDK1 enzyme; [5]) [µM] | IC50 (cyclin D1/cdk 4 enzyme; [6]) [nM] | IC50 (cyclin E/CDK2 enzyme; [12]) [µM] | IC50 (cyclin B/CDK1 enzyme; [13]) [µM] | IC50 (cyclin D1/cdk 4 enzyme; [14]) [nM] | IC50 (HCT-116; [2]) [µM] | IC50 (BT474; [3]) [µM] | IC50 (LoVo; [4]) [µM] | IC50 (MCF-7; [7]) [µM] | IC50 (HCT-116; [8]) [µM] | IC50 (BT474; [9]) [µM] | IC50 (LoVo; [10]) [µM] | IC50 (MCF-7; [11]) [µM] | further results |
| --- | --- | --- | --- | --- | --- | --- | --- | --- | --- | --- | --- | --- | --- | --- | --- |
| CN(C)CCCc1ccc(N/C=C2\C(=O)NC(=O)c3ccc(Br)cc32)cc1 [Example 270, (4Z)-6-Bromo-4-[({4-[3-(dimethylamino)propyl]phenyl}amino)methylene]isoquinoline-1,3(2H,4H)-dione] | 38.8 | > 50 | 3000 |  |  |  | 13 | 27 | 24 | 7.2 |  |  |  |  |  |
| COC(=O)[C@H]1CCCN1Cc1ccc(NC=C2C(=O)NC(=O)c3ccc(I)cc32)cc1 [Example 367, D-1-{4-[(6-Iodo-1,3-dioxo-2,3-dihydro-1H-isoquinolin-4-ylidenemethyl)-amino]-benzyl}-pyrrolidine-2-carboxylic acid methyl ester] | 43.4 | > 50 | 12600 |  |  |  | 13 | 15 | 26 | 13 |  |  |  |  |  |
| COc1cnc(CNC=C2C(=O)NC(=O)c3ccc(I)cc32)cc1O [Example 362, 6-Iodo-4-{[(4-hydroxy-5-methoxy-pyridin-2-ylmethyl)-amino]-methylene}-4H-isoquinoline-1,3-dione] | 0.5 | 14.7 | 10 |  |  |  | 1.3 | 0.2 | 0.7 | 1 |  |  |  |  |  |
| CN(C)NC(=O)Cc1ccc(N/C=C2\C(=O)NC(=O)c3ccc(Br)cc32)cc1 [Example 283, 2-(4-{[(Z)-(6-Bromo-1,3-dioxo-2,3-dihydroisoquinolin-4(1H)-ylidene)methyl]amino}phenyl)-N′,N′-dimethylacetohydrazide] | > 50 | > 50 | 10000 |  |  |  |  |  |  |  |  |  |  |  | IC50 (HCT-116; Homo sapiens, HCT-116, 72 h): 17 µM; IC50 (BT474; Homo sapiens, BT-474, 144 h): 16 µM; IC50 (LoVo; Homo sapiens, LoVo, 72 h): 17 µM; IC50 (MCF-7; Homo sapiens, MCF7, 72 h): 9.8 µM |
| 6-Bromo-4-[(4-pyrrolidin-1-ylmethyl-phenylamino)-methylene]-1,4-dihydro-2H-isoquinolin-3-one & 8-Bromo-4-[(4-pyrrolidin-1-ylmethyl-phenylamino)-methylene]-1,4-dihydro-2H-isoquinolin-3-one [Example 846] |  |  |  | > 50 | > 50 | 2500 |  |  |  |  |  |  |  |  | IC50 (HCT-116; HCT116 cells, 3 days, SRB): 2.6 µM; IC50 (BT474; BT474 cells, 6 days, SRB): 10.7 µM; IC50 (LoVo; LoVo cells, 3 days, SRB): 4.8 µM; IC50 (MCF-7; MCF-7 cells, 3 days, SRB): 4.9 µM |
| CC1(C)Oc2cc(CN/C=C3\C(=O)NC(=O)c4ccc(Br)cc43)cc(OC(=O)C3CC3)c2O1 [Example 269, 6-({[(Z)-(6-Bromo-1,3-dioxo-2,3-dihydroisoquinolin-4(1H)-ylidene)methyl]amino}methyl)-2,2-dimethyl-1,3-benzodioxol-4-yl cyclopropanecarboxylate] | 24.7 | 1.9 | > 50000 |  |  |  | 25 | 43 | 41 | 29 |  |  |  |  |  |
| CC1(C)Oc2cc(CN/C=C3\C(=O)NC(=O)c4ccc(Br)cc43)cc(O)c2O1 [Example 224, (4Z)-6-Bromo-4-({[(7-hydroxy-2,2-dimethyl-1,3-benzodioxol-5-yl)methyl]amino}methylene)isoquinoline-1,3(2H,4H)-dione] | 4 | 45.5 | 170 |  |  |  | 6.4 | 9.6 | 7.9 | 7.4 |  |  |  |  |  |
| COc1ccc(CN/C=C2\C(=O)NC(=O)c3ccccc32)cc1O [Example 98, (4Z)-4-{[(3-Hydroxy-4-methoxybenzyl)amino]methylene}isoquinoline-1,3(2H,4H)-dione] | 7.1 | > 50 |  |  |  |  | 17.9 | 16.8 | 19.3 | 24.1 |  |  |  |  | IC50 (cyclin D1/cdk 4 enzyme; CDK4 IC50, In Vitro Enzyme Assays, 200 μM ATP): 210 nM |
